In ChEMBL document CHEMBL4665787, “Bifunctional and Unusual Amino Acid β- or γ-Ester Prodrugs of Nucleoside Analogues for Improved Affinity to ATB and Enhanced Metabolic Stability: An Application to Floxuridine” (J Med Chem, 2020):
Activity calls are given as the source filed them. No cut-off for these calls is given here.

Key:
[1] = Half life of compound in human MIA PaCa-2 cell homogenate; format: ADME, tissue-based
[2] = Cmax in NOD SCID nude mouse tumour xenografted with ZR-75-1 cells assessed as floxuridine; 5-fluoro-2-deoxyuridine concentration at 90 mg/kg, iv measured up to 24 hrs by HPLC-MS/MS analysis; format: ADME, organism-based, Neoplasm; parameters: route intravenous, dose 90 mg/kg, time <=24; settings: in vivo
[3] = Toxicity in NOD SCID nude mouse xenografted with human MIA PaCa-2 cells assessed as body weight at 90 mg/kg, iv for 20 days (reference value: 28.4 +/- 2.1g); format: organism-based; settings: in vivo, 480 h, time 20 day
[4] = Selectivity ratio of substrate activity at SLC6A14 (unknown origin) expressed in Xenopus laevis oocytes assessed as ABT0+ mediated drug uptake to drug uptake in Xenopus laevis oocytes; parameters: species or system Oocyte
MIA PaCa-2 = assay: Potency index, ratio of FUdR GI50 to test compound GI50 for growth inhibition of human MIA-PaCa-2 cells; format: functional
[5] = Drug uptake in Xenopus laevis oocytes at 0.5 mM incubated for 10 mins by HPLC analysis; format: ADME, cell-based; settings: oocyte, 500 µM
[6] = target: T1, Sodium- and chloride-dependent neutral and basic amino acid transporter B(0+) (Homo sapiens, UniProt Q9UN76); assay: Substrate activity at SLC6A14 (unknown origin) expressed in Xenopus laevis oocytes assessed as inhibition of glycine uptake incubated for 10 mins by HPLC/MS/MS analysis; format: cell-based, Oocyte
T1 sequence (Q9UN76 whole entry): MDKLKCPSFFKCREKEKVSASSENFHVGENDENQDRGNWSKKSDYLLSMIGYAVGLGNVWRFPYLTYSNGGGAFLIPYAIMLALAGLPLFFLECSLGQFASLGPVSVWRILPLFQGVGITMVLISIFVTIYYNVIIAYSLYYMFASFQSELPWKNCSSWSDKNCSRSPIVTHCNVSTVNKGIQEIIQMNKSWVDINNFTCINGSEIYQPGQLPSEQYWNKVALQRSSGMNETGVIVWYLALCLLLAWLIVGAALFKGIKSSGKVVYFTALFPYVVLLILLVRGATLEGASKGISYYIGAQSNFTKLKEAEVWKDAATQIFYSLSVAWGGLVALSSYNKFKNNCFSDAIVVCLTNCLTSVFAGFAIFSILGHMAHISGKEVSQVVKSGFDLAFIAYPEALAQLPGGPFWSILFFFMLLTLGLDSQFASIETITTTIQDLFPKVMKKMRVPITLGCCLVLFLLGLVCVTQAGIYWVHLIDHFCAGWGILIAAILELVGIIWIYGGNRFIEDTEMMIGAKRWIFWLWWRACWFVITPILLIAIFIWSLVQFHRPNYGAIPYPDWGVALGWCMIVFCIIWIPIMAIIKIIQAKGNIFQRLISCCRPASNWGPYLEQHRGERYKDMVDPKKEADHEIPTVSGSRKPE

[7] = Cmax in NOD SCID nude mouse plasma xenografted with ZR-75-1 cells assessed as fluorouracil at 90 mg/kg, iv measured up to 24 hrs by HPLC-MS/MS analysis; format: ADME, organism-based; parameters: route intravenous, dose 90 mg/kg, time <=24; settings: in vivo
[8] = Cmax in NOD SCID nude mouse plasma xenografted with ZR-75-1 cells assessed as floxuridine; 5-fluoro-2-deoxyuridine concentration at 90 mg/kg, iv measured up to 24 hrs by HPLC-MS/MS analysis; format: ADME, organism-based; parameters: route intravenous, dose 90 mg/kg, time <=24; settings: in vivo
[9] = target: T2, Sodium- and chloride-dependent neutral and basic amino acid transporter B(0+) (Homo sapiens) (UniProt Q9UN76); assay: Substrate activity at SLC6A14 (unknown origin) expressed in Xenopus laevis oocytes assessed as increase in ABT0+ mediated drug uptake at 1 mM in presence of Cl- ion by HPLC analysis; format: cell-based; settings: Oocyte
T2 sequence (whole entry): T1 sequence (Q9UN76 whole entry)

[10] = Toxicity in NOD SCID nude mouse xenografted with human ZR-75-1 cells assessed as body weight at 90 mg/kg, iv for 20 days (reference value: 29.2 +/- 2.5g); format: organism-based; settings: in vivo, 480 h, time 20 day
[11] = AUC (0 to t) in NOD SCID nude mouse plasma xenografted with ZR-75-1 cells assessed as fluorouracil AUC at 90 mg/kg, iv measured up to 24 hrs by HPLC-MS/MS analysis; format: ADME, organism-based; parameters: route intravenous, dose 90 mg/kg, time <=24; settings: in vivo
ZR-75-1 = assay: Potency index, ratio of FUdR GI50 to test compound GI50 for growth inhibition of human ZR-75-1 cells; format: functional
[12] = Selectivity ratio of substrate activity at PEPT1 (unknown origin) expressed in MDCK cells assessed as PEPT1 mediated drug uptake to drug uptake in MDCK cells
[13] = AUC (0 to t) in NOD SCID nude mouse tumour xenografted with ZR-75-1 cells assessed as floxuridine; 5-fluoro-2-deoxyuridine AUC at 90 mg/kg, iv measured up to 24 hrs by HPLC-MS/MS analysis; format: ADME, organism-based, Neoplasm; settings: in vivo

half-life [1]: 16.4 min
Cmax [2]: 700.2 ng/g
Drug uptake [5]: 0.32 nmol/mg/min
IC50 [6]: 820 µM
Cmax [7]: 67.8 ng/mL
Cmax [8]: 145.9 ng/mL
Activity [9]: Active
AUCt [11]: 588.2 ng·h/mL
AUCt [13]: 4600.1 ng·h/g
SMILES: N[C@@H](CC(=O)OC[C@H]1O[C@@H](n2cc(F)c(=O)[nH]c2=O)C[C@@H]1O)C(=O)O
Activity [3]: 26.3 g
Ratio [4]: 9.28
RatioGI50 (MIA PaCa-2): 7
Activity [10]: 26.8 g
RatioGI50 (ZR-75-1): 7
Ratio [12]: 1
